From patent US10030047B2 (Hoffmann-La Roche Inc., priority 2015, dated 2018)

System: A. baumannii strain ATCC17978
Experiment: 50% growth inhibitory concentration (IC50) determination, Iso-Sensitest broth
Type: cell-based
Settings: Acinetobacter baumannii; A. baumannii ATCC17978; Iso-Sensitest medium; OD 600 nm over 16 h; read-out: IC50 ATCC17978
Method: The in vitro antimicrobial activity of the compounds was alternatively determined according to the following procedure:
The assay used a 10-points Iso-Sensitest broth medium to measure quantitatively the in vitro activity of the compounds against A. baumannii ATCC 17978.
Stock compounds in DMSO were serially twofold diluted (e.g. range from 50 to 0.097 μM final concentration) in 384 wells microtiter plates and inoculated with 49 μl the bacterial suspension in Iso-Sensitest medium to have a final cell concentration of ˜5×10^(5) CFU/ml in a final volume/well of 50 ul/well. Microtiter plates were incubated at 35±2° C.
Bacterial cell growth was determined with the measurement of optical density at λ=600 nm each 20 minutes over a time course of 16 h.
Growth inhibition was calculated during the logarithmic growth of the bacterial cells with determination of the concentration inhibiting 50% (IC50) and 90% (IC90) of the growth.
Tables 3, 4 and 5 provide the 50% growth inhibitory concentrations (IC50) in micromoles per liter of the compounds of present invention obtained against the A. baumannii strain ATCC17978.

SMILES | IC50 [µM]
CN1C(=O)[C@H](CCCCN)NC(=O)[C@H](CCCN)NCc2ccccc2Sc2c(ccc(-c3ccccc3)c2Cl)CNC(=O)[C@@H]1Cc1c[nH]c2ccccc12 [Example 176, (12S,15S,18S)-15-(4-Amino-butyl)-18-(3-amino-propyl)-4-chloro-12-(1H-indol-3-ylmethyl)-13-methyl-5-phenyl-2-thia-10,13,16,19-tetraaza-tricyclo[19.4.0.0*3,8*]pentacosa-1(25),3,5,7,21,23-hexaene-11,14,17-trione] | 5.1
CN1C(=O)[C@H](CCCCN)NC(=O)[C@H](CCCN)NCc2ccccc2Sc2c(Cl)cc(-c3ccncc3)cc2CNC(=O)[C@@H]1Cc1c[nH]c2ccccc12 [Example 143, (12S,15S,18S)-15-(4-Amino-butyl)-18-(3-amino-propyl)-4-chloro-12-(1H-indol-3-ylmethyl)-13-methyl-6-pyridin-4-yl-2-thia-10,13,16,19-tetraaza-tricyclo[19.4.0.0*3,8*]pentacosa-1(25),3,5,7,21,23-hexaene-11,14,17-trione] | < 0.4
CCCC[C@@H]1NC(=O)[C@H](CCCN)NCc2cccnc2Sc2c(Cl)cc(Cl)cc2CNC(=O)[C@H](Cc2c[nH]c3ccccc23)N(C)C1=O [Example 253, (11S,14S,17S)-11-(3-Amino-propyl)-14-butyl-23,25-dichloro-17-(1H-indol-3-ylmethyl)-16-methyl-2-thia-4,10,13,16,19-pentaaza-tricyclo[19.4.0.0*3,8*]pentacosa-1(25),3(8),4,6,21,23-hexaene-12,15,18-trione] | 4.2
NCCCC[C@@H]1NC(=O)[C@H](CCCN)NCc2cccnc2Sc2c(ccc(-c3ccccc3)c2Cl)CNC(=O)[C@H](Cc2c[nH]c3ccccc23)NC1=O [Example 125, (11S,14S,17S)-14-(4-Amino-butyl)-11-(3-amino-propyl)-25-chloro-17-(1H-indol-3-ylmethyl)-24-phenyl-2-thia-4,10,13,16,19-pentaaza-tricyclo[19.4.0.0*3,8*]pentacosa-1(25),3,5,7,21,23-hexaene-12,15,18-trione] | 23.3
CN1Cc2ccccc2Sc2ccccc2CNC(=O)[C@H](Cc2c[nH]c3ccccc23)NC(=O)[C@H](CCCN)NC(=O)[C@@H]1Cc1ccc(-c2ccccc2)cc1 [Example 117, (12S,15S,18S)-15-(3-Amino-propyl)-18-biphenyl-4-ylmethyl-12-(1H-indol-3-ylmethyl)-19-methyl-2-thia-10,13,16,19-tetraaza-tricyclo[19.4.0.0*3,8*]pentacosa-1(25),3,5,7,21,23-hexaene-11,14,17-trione] | 8.1
CN1C(=O)[C@H](CCCCN)NC(=O)[C@H](CCCN)NCc2cccnc2Sc2c(Cl)ccc(-c3ccc(C(=O)NCCN4CCOCC4)cc3)c2CNC(=O)[C@@H]1Cc1c[nH]c2ccccc12 [Example 249, 4-[(11S,14S,17S)-14-(4-Amino-butyl)-11-(3-amino-propyl)-25-chloro-17-(1H-indol-3-ylmethyl)-16-methyl-12,15,18-trioxo-2-thia-4,10,13,16,19-pentaaza-tricyclo[19.4.0.0*3,8*]pentacosa-1(25),3(8),4,6,21,23-hexaen-22-yl]-N-(2-morpholin-4-yl-ethyl)-benzamide] | < 0.1
CN1C(=O)[C@H](CCCCN)NC(=O)[C@H](CCCN)NCc2cc(-c3cccnc3)ccc2Sc2c(Cl)cccc2CNC(=O)[C@@H]1Cc1c[nH]c2ccccc12 [Example 208, (12S,15S,18S)-15-(4-Amino-butyl)-18-(3-amino-propyl)-4-chloro-12-(1H-indol-3-ylmethyl)-13-methyl-23-pyridin-3-yl-2-thia-10,13,16,19-tetraaza-tricyclo[19.4.0.0*3,8*]pentacosa-1(25),3,5,7,21,23-hexaene-11,14,17-trione] | 12.5
